Each structure is given as a SMILES string. Converted amounts (≈) assume the structure as drawn.

The first assay has as its system Staphylococcus aureus Smith. Description: MIC assay, modified agar dilution (CLSI), S. aureus Smith. Type of assay: cell-based. The conditions noted are these: Staphylococcus aureus, agar dilution, 35° C., 16-20 hr; lowest concentration that completely inhibited growth; read-out: S_aureus_Smith_WT_MIC. In a few lines:
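Agar dilution per CLSI on Mueller Hinton agar (plus 5% horse blood for S. pneumoniae and E. faecium), compound 128 to 0.001 μg/mL in two-fold steps. Spots of ~1×10^4 CFU incubated at 35 °C for 16-20 hr before MIC scoring.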
`COc1ccc2ncc(F)c(CCC34CCC(NCc5ncc6c(n5)OCCO6)(CC3)CO4)c2n1` [Example 144, N-((6,7-Dihydro-[1,4]dioxino[2,3-d]pyrimidin-2-yl)methyl)-1-(2-(3-fluoro-6-methoxy-1,5-naphthyridin-4-yl)ethyl)-2-oxabicyclo[2.2.2]octan-4-amine]: the MIC was 0.125 µg/mL (≈ 0.26 µM).

For the compound `COc1ccc2ncc(F)c(C[C@@H](O)C34CCC(NCc5ncc6c(n5)OCCO6)(CC3)CO4)c2n1` [Example 145, (R)-1-(4-((6,7-Dihydro-[1,4]dioxino[2,3-d]pyrimidin-2-yl)methylamino)-2-oxabicyclo[2.2.2]octan-1-yl)-2-(3-fluoro-6-methoxy-1,5-naphthyridin-4-yl)ethanol], the MIC stood at 0.25 µg/mL (≈ 0.502 µM).

For `COc1ccc2ncc(F)c(CCC34CCC(NCc5ccc6c(n5)OCCO6)(CC3)CO4)c2n1` [Example 146, N-((2,3-Dihydro-[1,4]dioxino[2,3-b]pyridin-6-yl)methyl)-1-(2-(3-fluoro-6-methoxy-1,5-naphthyridin-4-yl)ethyl)-2-oxabicyclo[2.2.2]octan-4-amine], the MIC worked out at 0.125 µg/mL (≈ 0.26 µM). The same measure, in the same setting: next, `COc1ccc2ncc(F)c(CC(O)C34CCC(NCc5ccc6c(n5)OCCO6)(CC3)CO4)c2n1` (stereo not shown) [Example 147, 1-(4-((2,3-Dihydro-[1,4]dioxino[2,3-b]pyridin-6-yl)methylamino)-2-oxabicyclo[2.2.2]octan-1-yl)-2-(3-fluoro-6-methoxy-1,5-naphthyridin-4-yl)ethanol]: 0.125 µg/mL (≈ 0.252 µM); `COc1ccc2ncc(F)c(CC(O)C34CCC(NCc5cc6c(cn5)OCC(=O)N6)(CC3)CO4)c2n1` (stereo not shown) [Example 149, 7-((1-(2-(3-Fluoro-6-methoxy-1,5-naphthyridin-4-yl)-1-hydroxyethyl)-2-oxabicyclo[2.2.2]octan-4-ylamino)methyl)-1H-pyrido[3,4-b][1,4]oxazin-2(3H)-one]: 0.063 µg/mL (≈ 0.124 µM); `COc1cc(OC)c2nccc(CCC34CCC(NCc5ccc6c(n5)NC(=O)CO6)(CC3)CO4)c2n1` [Example 150, 6-((1-(2-(6,8-Dimethoxy-1,5-naphthyridin-4-yl)ethyl)-2-oxabicyclo[2.2.2]octan-4-ylamino)methyl)-2H-pyrido[3,2-b][1,4]oxazin-3(4H)-one]: 0.5 µg/mL (≈ 0.989 µM). The same measure, in the same setting: then `COc1ccc2ccc(F)c(CCC34CCC(NCc5ccc6c(n5)NC(=O)CO6)(CC3)CO4)c2n1` [Example 153, 6-((1-(2-(7-Fluoro-2-methoxyquinolin-8-yl)ethyl)-2-oxabicyclo[2.2.2]octan-4-ylamino)methyl)-2H-pyrido[3,2-b][1,4]oxazin-3(4H)-one], with 0.063 µg/mL (≈ 0.128 µM); and `CN(C)c1nc2c(CCC34CCC(NCc5ccc6c(n5)NC(=O)CO6)(CC3)CO4)ccnc2cc1F` [Example 154, 6-((1-(2-(6-(Dimethylamino)-7-fluoro-1,5-naphthyridin-4-yl)ethyl)-2-oxabicyclo[2.2.2]octan-4-ylamino)methyl)-2H-pyrido[3,2-b][1,4]oxazin-3(4H)-one], with 1 µg/mL (≈ 1.97 µM).

`COc1ccc2ncc(F)c(CCC34CCC(NCc5ccc6c(n5)NC(=O)CS6)(CC3)CO4)c2n1` [Example 155, 6-((1-(2-(3-Fluoro-6-methoxy-1,5-naphthyridin-4-yl)ethyl)-2-oxabicyclo[2.2.2]octan-4-ylamino)methyl)-2H-pyrido[3,2-b][1,4]thiazin-3(4H)-one]: the MIC worked out at 0.016 µg/mL (≈ 0.0314 µM).

Consider `COc1ccc2ncc(F)c(CC(O)C34CCC(NCc5ccc6c(n5)NC(=O)CS6)(CC3)CO4)c2n1` (stereo not shown) [Example 156, 6-((1-(2-(3-Fluoro-6-methoxy-1,5-naphthyridin-4-yl)-1-hydroxyethyl)-2-oxabicyclo[2.2.2]octan-4-ylamino)methyl)-2H-pyrido[3,2-b][1,4]thiazin-3(4H)-one], for which the MIC stood at 0.063 µg/mL (≈ 0.12 µM).

Regarding `COc1ccc2ncc(F)c(CC(F)C34CCC(NCc5ccc6c(n5)NC(=O)CO6)(CC3)CO4)c2n1` (stereo not shown) [Example 157a, 6-[({1-[1-Fluoro-2-(3-fluoro-6-methoxy-1,5-naphthyridin-4-yl)ethyl]-2-oxabicyclo[2.2.2]oct-4-yl}amino)methyl]-2H-pyrido[3,2-b][1,4]oxazin-3(4H)-one], the MIC was determined as 2 µg/mL (≈ 3.91 µM). On the same count and under the same terms, then `O=C1COc2ccc(CNC34CCC(C(O)Cc5c(F)cnc6ccc(OCCCO)nc56)(CC3)OC4)nc2N1` (stereo not shown) [Example 158, 6-{[(1-{2-[3-Fluoro-6-(3-hydroxypropoxy)-1,5-naphthyridin-4-yl]-1-hydroxyethyl}-2-oxabicyclo[2.2.2]oct-4-yl)amino]methyl}-2H-pyrido[3,2-b][1,4]oxazin-3(4H)-one], with 0.125 µg/mL (≈ 0.226 µM); and `N#Cc1cnc2ccc(=O)n(CC(O)C34CCC(NCc5ccc6c(n5)NC(=O)CO6)(CC3)CO4)c2c1` (stereo not shown) [Example 162, 5-(2-Hydroxy-2-(4-((3-oxo-3,4-dihydro-2H-pyrido[3,2-b][1,4]oxazin-6-yl)methylamino)-2-oxabicyclo[2.2.2]octan-1-yl)ethyl)-6-oxo-5,6-dihydro-1,5-naphthyridine-3-carbonitrile], with 2 µg/mL (≈ 3.98 µM). Still for that read-out and setting: next, `COc1ccc2ncc(F)c(CCC34CCC(NCc5ccc6c(n5)NS(=O)(=O)CO6)(CC3)CO4)c2n1` [Example 163, 7-((1-(2-(3-Fluoro-6-methoxy-1,5-naphthyridin-4-yl)ethyl)-2-oxabicyclo[2.2.2]octan-4-ylamino)methyl)-1H-pyrido[2,3-e][1,3,4]oxathiazine-2,2-dioxide]: 4 µg/mL (≈ 7.55 µM); `N[C@H]1C(=O)N[C@@H]1COc1ccc2ncc(F)c(CCC34CCC(NCc5ccc6c(n5)NC(=O)CO6)(CC3)CO4)c2n1` [Example 164, 6-((1-(2-(6-(((2S,3R)-3-Amino-4-oxoazetidin-2-yl)methoxy)-3-fluoro-1,5-naphthyridin-4-yl)ethyl)-2-oxabicyclo[2.2.2]octan-4-ylamino)methyl)-2H-pyrido[3,2-b][1,4]oxazin-3(4H)-one]: 0.5 µg/mL (≈ 0.866 µM); `NCC(O)COc1ccc2ncc(F)c(CCC34CCC(NCc5ccc6c(n5)NC(=O)CO6)(CC3)CO4)c2n1` (stereo not shown) [Example 165, 6-{[(1-{2-[6-(3-Amino-2-hydroxypropoxy)-3-fluoro-1,5-naphthyridin-4-yl]ethyl}-2-oxabicyclo[2.2.2]oct-4-yl)amino]methyl}-2H-pyrido[3,2-b][1,4]oxazin-3(4H)-one]: 2 µg/mL (≈ 3.62 µM).

With `O=C1COc2ccc(CNC34CCC(CCc5c(F)cnc6ccc(OC7CC(O)CC(O)C7)nc56)(CC3)OC4)nc2N1` (stereo not shown) [Example 166, 6-({[1-(2-{6-[(3,5-Dihydroxycyclohexyl)oxy]-3-fluoro-1,5-naphthyridin-4-yl}ethyl)-2-oxabicyclo[2.2.2]oct-4-yl]amino}methyl)-2H-pyrido[3,2-b][1,4]oxazin-3(4H)-one], the MIC came out at 0.5 µg/mL (≈ 0.842 µM).

For the compound `COc1ccc2ncc(F)c(CC(OCCO)C34CCC(NCc5ccc6c(n5)NC(=O)CO6)(CC3)CO4)c2n1` (stereo not shown) [Example 167, 6-[({1-[2-(3-Fluoro-6-methoxy-1,5-naphthyridin-4-yl)-1-(2-hydroxyethoxy)ethyl]-2-oxabicyclo[2.2.2]oct-4-yl}amino)methyl]-2H-pyrido[3,2-b][1,4]oxazin-3(4H)-one], the MIC came out at 2 µg/mL (≈ 3.61 µM).

`COC(=O)N(Cc1ccc2c(n1)NC(=O)CO2)C12CCC(CCc3c(F)cnc4ccc(OC)nc34)(CC1)OC2` [Example 168, Methyl {1-[2-(3-Fluoro-6-methoxy-1,5-naphthyridin-4-yl)ethyl]-2-oxabicyclo[2.2.2]oct-4-yl}[(3-oxo-3,4-dihydro-2H-pyrido[3,2-b][1,4]oxazin-6-yl)methyl]carbamate]: the MIC was 16 µg/mL (≈ 29 µM). Same read-out and setting: then `O=C1COc2ccc(CNC34CCC(CCc5c(F)cnc6ccc(OC[C@H]7C[C@@H](O)[C@@H](O)C7)nc56)(CC3)OC4)nc2N1` [Example 169, 6-((1-(2-(6-(((1r,3R,4S)-3,4-Dihydroxycyclopentyl)methoxy)-3-fluoro-1,5-naphthyridin-4-yl)ethyl)-2-oxabicyclo[2.2.2]octan-4-ylamino)methyl)-2H-pyrido[3,2-b][1,4]oxazin-3(4H)-one], with 0.063 µg/mL (≈ 0.106 µM).

In the case of `O=C1COc2ccc(CNC34CCC(CCc5c(F)cnc6ccc(OCC7(O)COC7)nc56)(CC3)OC4)nc2N1` [Example 170, 6-((1-(2-(3-Fluoro-6-((3-hydroxyoxetan-3-yl)methoxy)-1,5-naphthyridin-4-yl)ethyl)-2-oxabicyclo[2.2.2]octan-4-ylamino)methyl)-2H-pyrido[3,2-b][1,4]oxazin-3(4H)-one], the MIC was found to be 0.125 µg/mL (≈ 0.221 µM). Turning to `Cl.O=C1COc2ccc(CNC34CCC(C(O)Cc5c(F)cnc6ccc(OCCO)nc56)(CC3)OC4)nc2N1` (stereo not shown) [Example 171, 6-((1-(2-(3-Fluoro-6-(2-hydroxyethoxy)-1,5-naphthyridin-4-yl)-1-hydroxyethyl)-2-oxabicyclo[2.2.2]octan-4-ylamino)methyl)-2H-pyrido[3,2-b][1,4]oxazin-3(4H)-one Hydrochloride], the MIC was 0.125 µg/mL.

As to `COc1ccc2ncc(F)c(CC(O)C34CCC(NCc5ccc6c(c5)OCCO6)(CC3)CO4)c2n1` (stereo not shown) [Example 172, 1-{4-[(2,3-Dihydro-1,4-benzodioxin-6-ylmethyl)amino]-2-oxabicyclo[2.2.2]oct-1-yl}-2-(3-fluoro-6-methoxy-1,5-naphthyridin-4-yl)ethanol], the MIC came to 0.031 µg/mL (≈ 0.0626 µM). The same measure, in the same setting: next, `COc1ccc2ncc(F)c(CC(O)C34CCC(NC(=O)c5ccc(C)c(F)c5)(CC3)CO4)c2n1` (stereo not shown) [Example 173, 3-Fluoro-N-{1-[2-(3-fluoro-6-methoxy-1,5-naphthyridin-4-yl)-1-hydroxyethyl]-2-oxabicyclo[2.2.2]oct-4-yl}-4-methylbenzamide]: 0.125 µg/mL (≈ 0.259 µM).

Still in this assay, the particulars now being: agar dilution, 35° C., 16-20 hr; lowest concentration that completely inhibited growth.
For `COc1ccc2ncc(F)c(CCC34CCC(NCc5cc6c(cn5)OCC(=O)N6)(CC3)CO4)c2n1` [Example 148, 7-((1-(2-(3-Fluoro-6-methoxy-1,5-naphthyridin-4-yl)ethyl)-2-oxabicyclo[2.2.2]octan-4-ylamino)methyl)-1H-pyrido[3,4-b][1,4]oxazin-2(3H)-one], the S_aureus_Smith_WT_MIC came out at 0.0310 µg/mL.

The values above are taken from US20140243302A1, “BRIDGED BICYCLIC COMPOUNDS FOR THE TREATMENT OF BACTERIAL INFECTIONS” (priority 2011, published 2014).
